According to the SangsterLogP compilation:

Compound	logP
O=C(Nc1ccccc1)C12CC(C(F)(F)F)(CO1)C2	2.05
O=C(Nc1ccccc1)C1CCCCCC1	3.24
O=C(c1ccccc1)N1CC2CCCC(C2)C1	2.36
O=C(Nc1ccccc1)C1CCCC1(F)F (stereo unspecified)	2.25
O=C(c1ccccc1)N1CC2CC(C1)CC(F)(F)C2	1.59
O=C(Nc1ccccc1)[C@H]1C[C@@H](CF)C1	1.96
O=C(Nc1ccccc1)C1CCC(F)(F)C1 (stereo unspecified)	2.5
O=C(c1ccccc1)N1CC2CCC(C1)C2(F)F	2.09
O=C(c1ccccc1)N1CCCCC1C(F)(F)F (stereo unspecified)	2.54
O=C(Nc1ccccc1)[C@@H]1C[C@@H]2[C@H](C1)C2(F)F	2.88
O=C(Nc1ccccc1)C1CCC(F)(F)CC1	2.63
O=C(NCCCCF)c1ccccc1	1.56
O=C(Nc1ccccc1)C1CC1	1.92

Further lines, results first:

logP	Compound
1.29	O=C(NC1CC1)c1ccccc1
2.53	O=C(NC1CC2(C1)CC(F)(F)C2)c1ccccc1
1.81	CC(F)(F)CCNC(=O)c1ccccc1
2.23	CCCCNC(=O)c1ccccc1
2.56	O=C(NC1CCCCCC1(F)F)c1ccccc1 (stereo unspecified)
2.32	O=C(NC1CCC(F)(F)CC1)c1ccccc1
1.36	O=C(N[C@H]1C[C@H]1C(F)F)c1ccccc1
1.51	O=C(c1ccccc1)N1CCC1C(F)F (stereo unspecified)
1.31	CCNC(=O)c1ccccc1
2.16	O=C(N[C@H]1C[C@H]1C(F)(F)F)c1ccccc1
1.64	C[C@@H]1C[C@@H]1NC(=O)c1ccccc1
2.23	O=C(N[C@@H]1C[C@@H]2[C@H](C1)C2(F)F)c1ccccc1
2.28	O=C(NCCCC(F)(F)F)c1ccccc1
